Measured values taken from patent US20070082883A1, “HIV protease inhibitors” (THE BOARD OF TRUSTEES OF THE UNIVERSITY OF ILLINOIS, priority 2002, published 2007).
pIC50, pKi: −log10 of the molar value.

Target: T1, HIV-1 protease (Human immunodeficiency virus type 1 group M subtype B, UniProt P04585)
T1 construct: made in house; host or cells: E. coli BL21 (dE3)pLysS, pET30a vector
Test: HIV-1 Protease Inhibition Assay
Type: biochemical
Details: for pIC50 / pKi: fluorogenic substrate assay
Description: Assays of the dose-response effect of inhibitor compounds can be described as a curve expressing a degree of inhibition as a function of concentration. The curve theoretically passes through a point at which the concentration is sufficient to reduce activity of the HIV protease enzyme to a level that is 50% that of the difference between minimal and maximal enzyme activity in the assay.
HIV-1 Protease Inhibition Assay
The HIV-1 protease gene was subcloned into the pET30a vector (Novagen) and then transformed into BL21 (dE3)pLysS cells for protein expression. Protein expression and purification were followed according to Tang's procedure (Hong et al., Biochemistry, 1996, 35, 10627-10633). […] The inclusion body containing some bacterial proteins was thoroughly washed by using TRITON X-100, solubilized in […] and passed through the Q-sepharose column to remove the bacterial proteins which interfered with subsequent refolding steps. HIV-1 protease was refolded from the urea to an active form by dialysis. As a final step, gel filtration chromatography was used to remove impurities after refolding. Activities of purified HIV-1 protease were examined using a fluorogenic substrate, 2-aminobenzoyl-Thr-Ile-Nle-Phe(pNO2)-Gln-Arg-NH2 (Novabiochem). […] In the condition of So<<Km, v=Eo(kcat/Km)So, where Eo is the total enzyme concentration, and So is the substrate concentrate. […] Assays are carried out as described by Toth and Marshall (Toth et al., Int. J. Pept. Protein Res., 1990, 36, 544-50).

Structure (SMILES): CC(C)(C)OC(=O)N[C@@H](Cc1ccccc1)[C@H](O)CN(C[C@H]1CCC(=O)N1)S(=O)(=O)c1ccc([N+](=O)[O-])cc1 [Compound 307a, {(1S)-Benzyl-(2R)-hydroxy-3-[(4-nitrobenzenesulfonyl)-(5-oxopyrrolidin-(2R)-ylmethyl)amino]propyl}-carbamic acid tert-butyl ester]
- pIC50: 8.15

Structure (SMILES): O=C(N[C@@H](Cc1ccccc1)[C@H](O)CN1CCCC/C=C\CCCCOc2cccc(c2)S1(=O)=O)O[C@@H]1CC2CCO[C@@H]2C1 (stereo partly shown) [Compound 235]
- pIC50: 8.03
- pKi: 8.54

Structure (SMILES): CC(C)CN(C[C@@H](O)[C@H](Cc1ccccc1)NC(=O)OC1CC2CCO[C@@H]2C1)S(=O)(=O)c1cc(OC2CCCCO2)cc(OC2CCCCO2)c1 (stereo partly shown) [Compound 99]
- pIC50: 8.41
- pKi: 8.92

Structure (SMILES): Cc1ccc(S(=O)(=O)N(CCN(C)C)C[C@@H](O)[C@H](Cc2ccccc2)NC(=O)O[C@@H]2CO[C@@H]3OCCC[C@@H]32)cc1CO [Compound 160]
- pIC50: 6.64
- pKi: 7.14

Structure (SMILES): COc1ccc(S(=O)(=O)N(C[C@@H]2CCC(=O)N2)C[C@@H](O)[C@H](Cc2ccccc2)NC(=O)OC2CC[C@H]3OCC[C@@H]23)cc1 (stereo partly shown) [Compound 278]
- pIC50: 9.80

Structure (SMILES): O=C(N[C@@H](Cc1ccccc1)[C@H](O)CN1CCCCCCCOc2cccc(c2)S1(=O)=O)O[C@@H]1CC2CCO[C@@H]2C1 (stereo partly shown) [Compound 225h]
- pIC50: 8.17
- pKi: 8.68

Structure (SMILES): Cc1ccc(S(=O)(=O)N(CC(C)C)C[C@@H](O)[C@H](Cc2ccccc2)NC(=O)OC2CC3CCO[C@@H]3C2)cc1CO (stereo partly shown) [Compound 157]
- pIC50: 8.55
- pKi: 9.06

Structure (SMILES): CC(C)CN(C[C@@H](O)[C@H](Cc1ccccc1)NC(=O)OC1CC2CCO[C@@H]2C1)S(=O)(=O)c1cccc2cccnc12 (stereo partly shown) [Compound 132]
- pIC50: 7.92
- pKi: 8.43

Structure (SMILES): COc1ccc(S(=O)(=O)N(CC(=O)[C@H](Cc2ccc(OCc3ccccc3)cc2)NC(=O)OC(C)(C)C)CC(C)C)cc1 [Compound 208]
- pIC50: < 5.64

Structure (SMILES): COc1ccc(S(=O)(=O)N(CC(C)C)C[C@H](O)[C@H](Cc2ccc(OCc3ccccc3)cc2)NC(=O)O[C@H]2CO[C@H]3OCCC32)cc1 (stereo partly shown) [Compound 211]
- pIC50: 7.05
- pKi: 7.55

Structure (SMILES): Cc1ccc(S(=O)(=O)N(C[C@@H](O)[C@H](Cc2ccccc2)NC(=O)OC2CC3CCO[C@@H]3C2)C2CCOC2)cc1CO (stereo partly shown) [Compound 162]
- pIC50: 8.39
- pKi: 8.89

Structure (SMILES): Cc1c(O)cccc1C(=O)N[C@@H](Cc1ccccc1)[C@H](O)CN(CC(C)C)S(=O)(=O)c1ccc(F)c(N)c1 [Compound 183]
- pIC50: 6.75
- pKi: 7.25

Structure (SMILES): CC(C)CN(C[C@@H](O)[C@H](Cc1ccccc1)NC(=O)OC1CO[C@H]2OCC[C@@H]12)C1CC2(CCCC2)NC1=O (stereo partly shown) [Compound 270]
- pIC50: 8.19

Structure (SMILES): O=C1CC[C@H](CN(C[C@@H](O)[C@H](Cc2ccccc2)NC(=O)OC2CO[C@H]3OCC[C@@H]23)S(=O)(=O)c2ccc([N+](=O)[O-])cc2)N1 (stereo partly shown) [Compound 274]
- pIC50: 10.00

Structure (SMILES): CC(C)CN(C[C@@H](O)[C@H](Cc1ccccc1)NC(=O)O[C@H]1CCOC1)S(=O)(=O)c1ccc(Cl)c(O)c1 [Compound 153]
- pIC50: 8.44
- pKi: 8.96

Structure (SMILES): CC(C)CN(C[C@@H](O)[C@H](Cc1ccccc1)NC(=O)OC1CO[C@H]2OCCC12)S(=O)(=O)c1cccc(/C=N/O)c1 (stereo partly shown) [Compound 120]
- pIC50: 8.62
- pKi: 9.13

Structure (SMILES): CC(C)CN(C[C@@H](O)[C@H](Cc1ccccc1)NC(=O)OC1CO[C@H]2OCCC12)S(=O)(=O)c1ccc(/C=C/CO)cc1 (stereo partly shown) [Compound 121]
- pIC50: 8.52

Structure (SMILES): O=C(N[C@@H](Cc1ccccc1)[C@H](O)CN(CCN1CCOCC1)S(=O)(=O)c1ccc(Cl)c(O)c1)OC1CO[C@H]2OCCC12 (stereo partly shown) [Compound 154]
- pIC50: 7.60
- pKi: 8.11

Structure (SMILES): CC(C)CN(C[C@@H](O)[C@H](Cc1ccccc1)NC(=O)OC1CC2CCO[C@@H]2C1)S(=O)(=O)c1cccc(O)c1 (stereo partly shown) [Compound 79]
- pIC50: 8.26
- pKi: 8.77

Structure (SMILES): O=C(N[C@@H](Cc1ccccc1)[C@H](O)CN1CCCCCCCCCCOc2cccc(c2)S1(=O)=O)O[C@@H]1CC2CCO[C@@H]2C1 (stereo partly shown) [Compound 236]
- pIC50: 7.96
- pKi: 8.47

Structure (SMILES): CC(C)(C)NC(=O)[C@@H]1C[C@@H]2CCCC[C@@H]2CN1C[C@@H](O)[C@H](Cc1ccccc1)NC(=O)OC1CC[C@@]2(CCCO2)C1 (stereo partly shown) [Compound 145b]
- pIC50: < 5.70

Structure (SMILES): CC(C)CN(C[C@@H](O)[C@H](Cc1ccccc1)NC(=O)OC1CC2CCO[C@@H]2C1)S(=O)(=O)c1cccc(C=NO)c1 (stereo partly shown) [Compound 129]
- pIC50: 8.54
- pKi: 9.05

Structure (SMILES): C=CCCCCOc1ccccc1COC(=O)N(CCCC=C)C[C@@H](O)[C@H](Cc1ccccc1)NC(=O)O[C@@H]1CC2CCO[C@@H]2C1 (stereo partly shown) [Compound 226]
- pIC50: < 5.70

Structure (SMILES): COc1ccc(S(=O)(=O)N(CC(C)C)C[C@@H](O)[C@H](Cc2ccc(O)cc2)NC(=O)O[C@H]2CO[C@H]3OCCC32)cc1 (stereo partly shown) [Compound 213]
- pIC50: 8.39
- pKi: 8.89

Structure (SMILES): CC(C)CN(C[C@@H](O)[C@H](Cc1ccccc1)NC(=O)OC1CO[C@H]2OCC[C@@H]12)C1CC(C)(C)NC1=O (stereo partly shown) [Compound 269]
- pIC50: 8.47

Structure (SMILES): O=C(N[C@@H](Cc1ccccc1)[C@H](O)CN1CCCCCCCCCOc2cccc(c2)S1(=O)=O)O[C@H]1CO[C@H]2OCCC21 (stereo partly shown) [Compound 225b]
- pIC50: 8.11
- pKi: 8.62

Structure (SMILES): Cc1ccc(S(=O)(=O)N(CC(C)C)C[C@@H](O)[C@H](CC2CCN(Cc3ccccc3)CC2)NC(=O)O[C@H]2CCOC2)cc1 [Compound 150]
- pIC50: 6.27

Structure (SMILES): CC(C)(C)OC(=O)N[C@@H](Cc1ccccc1)[C@H](O)CN(C[C@@H]1CCC(=O)N1)S(=O)(=O)c1ccc([N+](=O)[O-])cc1 [Compound 307b]
- pIC50: 7.92

Structure (SMILES): CC(C)CN(C[C@@H](O)[C@H](Cc1ccccc1)NC(=O)OC(C)(C)C)S(=O)(=O)c1ccc(CN2CCN(C)CC2)cc1 [Compound 137]
- pIC50: 5.68

Structure (SMILES): CC(C)CN(C[C@H](O)C(Cc1ccccc1)NC(=O)O[C@@H]1C[C@@H]2CCO[C@@H]2C1)S(=O)(=O)c1ccc(CO)cc1 (stereo partly shown) [Compound 254]
- pIC50: 9.00

Structure (SMILES): CC(C)CN(C[C@@H](O)[C@H](Cc1ccccc1)NC(=O)O[C@H]1CCOC1)S(=O)(=O)c1ccc(CN2CCN(C)CC2)cc1 [Compound 138]
- pIC50: 6.57

Structure (SMILES): C=CCCCCOc1cccc(S(=O)(=O)N(CCCCC=C)C[C@@H](O)[C@H](Cc2ccccc2)NC(=O)O[C@H]2CO[C@H]3OCCC32)c1 (stereo partly shown) [Compound 225c]
- pIC50: 8.07
- pKi: 8.59

Structure (SMILES): CC(C)CN(C[C@@H](O)[C@H](Cc1ccccc1)NC(=O)O[C@H]1CCOC1)S(=O)(=O)c1ccc(CN2CCOCC2)cc1 [Compound 139]
- pIC50: 6.01

Structure (SMILES): COc1ccc(S(=O)(=O)N(CC(C)C)C[C@@H](O)[C@H](Cc2ccc(OCc3ccccc3)cc2)NC(=O)O[C@H]2CO[C@H]3OCCC32)cc1 (stereo partly shown) [Compound 212]
- pIC50: 7.52
- pKi: 8.03

Structure (SMILES): CC(C)CN(C[C@@H](O)[C@H](Cc1ccccc1)NC(=O)OC1CC2CCO[C@@H]2C1)S(=O)(=O)c1ccc(CN)cc1 (stereo partly shown) [Compound 125]
- pIC50: 8.46
- pKi: 8.96

Structure (SMILES): Cc1cc(S(=O)(=O)N(CC(C)C)C[C@@H](O)[C@H](Cc2ccccc2)NC(=O)O[C@@H]2CC3CCO[C@@H]3C2)ccc1CO (stereo partly shown) [Compound 259]
- pIC50: 8.55

Structure (SMILES): COc1ccc(S(=O)(=O)N(C[C@H]2CCC(=O)N2)C[C@@H](O)[C@H](Cc2ccccc2)NC(=O)OC2CC[C@H]3OCC[C@@H]23)cc1 (stereo partly shown) [Compound 277]
- pIC50: 10.00

Structure (SMILES): CC(C)CN(C[C@@H](O)[C@H](Cc1ccccc1)NC(=O)O[C@@H]1CCOC1)[C@H]1CCNC1=O [Compound 248]
- pKi: 6.14

Structure (SMILES): CC(C)CN(C[C@@H](O)[C@H](Cc1ccccc1)NC(=O)OC1CC2CCO[C@@H]2C1)S(=O)(=O)Cc1ccccc1 (stereo partly shown) [Compound 133]
- pIC50: 7.32
- pKi: 7.82

Structure (SMILES): CC(C)CN(C[C@@H](O)[C@H](Cc1ccccc1)NC(=O)OC1CC2CCO[C@@H]2C1)S(=O)(=O)c1ccc(Cl)c(O)c1 (stereo partly shown) [Compound 152]
- pIC50: 8.28
- pKi: 8.74

Structure (SMILES): CC(C)CN(C[C@@H](O)[C@H](Cc1ccccc1)NC(=O)OC1CO[C@H]2OCCC12)S(=O)(=O)c1ccc(Cl)c(O)c1 (stereo partly shown) [Compound 151]
- pIC50: 8.51
- pKi: 9.00

Structure (SMILES): COc1ccc(S(=O)(=O)N(CC(C)C)CC(O)C(Cc2ccc(OCc3ccccc3)cc2)NC(=O)OC(C)(C)C)cc1 (stereo not shown) [Compound 210]
- pIC50: 7.89
- pKi: 8.39

Structure (SMILES): CC(C)(C)NC(=O)[C@@H]1C[C@@H]2CCCC[C@@H]2CN1C[C@@H](O)[C@H](Cc1ccccc1)NC(=O)OC1CCCC12CCCO2 (single isomer, unassigned) [Compound 144]
- pIC50: 7.40

Structure (SMILES): Cc1ccc(S(=O)(=O)N(CC(C)C)C[C@@H](O)[C@H](Cc2ccccc2)NC(=O)OC2CO[C@H]3OCCC23)cc1CO (stereo partly shown) [Compound 156]
- pIC50: 8.51
- pKi: 9.01

Structure (SMILES): COc1ccc(S(=O)(=O)N(C[C@@H]2CCC(=O)N2)C[C@@H](O)[C@H](Cc2ccccc2)NC(=O)OC2CO[C@H]3OCC[C@@H]23)cc1 (stereo partly shown) [Compound 283]
- IC50 (cells marked (pM) in a column headed nM): 14 pM

Structure (SMILES): Cc1ccc(S(=O)(=O)N(CC(C)C)C[C@@H](O)[C@H](CC2CCN(C(=O)c3ccccc3)CC2)NC(=O)O[C@H]2CCOC2)cc1 [Compound 147]
- pIC50: 7.22

Structure (SMILES): C=CCCCCN(C[C@@H](O)[C@H](Cc1ccccc1)NC(=O)O[C@@H]1CC2CCO[C@@H]2C1)S(=O)(=O)c1cccc(OCC=C)c1 (stereo partly shown) [Compound 225f]
- pIC50: 7.96
- pKi: 8.47
